Laboratory results: patent publication US20160060285A1, “Aminoglycosides, Methods of Synthesis, and Associated Applications” (UTAH STATE UNIVERSITY, priority 2010, published 2016)
Converted amounts (≈) assume the structure as drawn.

Key:
[1] = system: Candida albicans ATCC64124 (azole-resistant); experiment: microbe, parasite or virus in culture; type: cell-based
[2] = system: Staphylococcus aureus ATCC25923; experiment: Bacterial growth inhibition (MIC) test, microtiter plate, CLSI protocol; type: cell-based; details: Staphylococcus aureus, ATCC25923; S. aureus 25923; 37° C., 24 hours; read-out: MIC
[3] = system: Escherichia coli ATCC 25922; experiment: as above; type: cell-based; details: Escherichia coli, ATCC25922; E. coli 25922; Luria-Bertani medium, 37° C., 24 hours; read-out: MIC
[4] = system: Candida albicans ATCC MYA-2876 (azole sensitive); experiment: Fungal MIC and MFC, microbroth dilution assay (M27-A3); type: cell-based; details: C. albicans MYA2876 (azole sensitive)
[5] = system: HeLa cells; experiment: Cell viability assay (MTT), cytotoxicity test; type: cell-based, human; details: for Viable Cells Percentage Compared to Control: MTT
Experimental: HeLa cells were grown in commercial DMEM 1× (Gibco) with 10% fetal bovine serum (FBS, Gibco), 100 U/mL penicillin, and 100 μg/mL streptomycin at 37° C. and 5% CO2. The cells were allowed to adhere for 24 h before drug treatment.
The cells were seeded in 96-well microtiter plates (10,000/200 μL). After 24 h of incubation in the media, cells were treated with various concentrations of K608, K4608 and K408 (0.0, 1.0, 10.0, 100.0, 1000 μg/mL and Trition 1×) for 48 h. 20 μL of MTT stock solution (5 mg/mL) was added to each well and incubated for 4 h at 37° C. Upon completion of incubation, the media was carefully removed and washed twice with […] of pbs buffer. Then, 200 μL of DMSO was added to each well; agitated on orbital shaker for 15 min., and the absorbance at 570 nm with 670 nm filter was determined with a microplate reader (Synergy H4). The results are expressed as viability compared with that of control. The experiment was carried out in triplicate in three independent experiments.

[6] = system: azole-resistant Candida albicans ATCC 64124; experiment: Antifungal synergism by checkerboard analysis, K-compound and azole combinations; type: cell-based; details: Candida albicans, ATCC64124, K4608 checkerboard table; compound alone
[7] = system: Fusarium graminearum B4-5A; experiment: microbe, parasite or virus in culture; type: cell-based; details: Fusarium graminearum, B45A, 48 h

`CCCCCCCCOC[C@H]1OC(O[C@@H]2C(N)CC(N)C(O[C@H]3OC(CN)[C@@H](O)[C@H](O)C3O)[C@@H]2O)[C@H](O)[C@H](N)C1OCCCCCCCC` (some centres unmarked) [Compound K4608] gave an MFC ([1]; ATCC64124) of 9.8 µg/mL (≈ 13.8 µM), an MIC ([1]; ATCC64124, 48 h) of 4.9 to 9.8 µg/mL (≈ 6.91 to 13.8 µM) and an MIC [2] greater than 250 µg/mL. The MIC [3] was greater than 250 µg/mL, the MIC ([4]; RPMI 1640, 35° C., 48 hours) was 1.2 to 2.4 µg/mL (≈ 1.69 to 3.39 µM) and the MFC ([4]; subculture on Sabouraud dextrose agar after MIC test) was 2.4 µg/mL (≈ 3.39 µM). The “toxicity to human cervical cancer cell line HeLa” value ([5]; 1.0 to 1000 μg/mL, 48 h) was “not toxic”, the “Viable Cells Percentage Compared to Control” value ([5]; HeLa, 1 μg/mL, 48 h) was 124.28% and the “Viable Cells Percentage Compared to Control” value ([5]; HeLa, 10 μg/mL, 48 h) was 149.52%. The “Viable Cells Percentage Compared to Control” value ([5]; HeLa, 100 μg/mL, 48 h) was 129.86%, the “Viable Cells Percentage Compared to Control” value ([5]; HeLa, 1000 μg/mL, 48 h) was 122.93% and the “effect on growth of cells (number of viable cells)” value ([5]; HeLa, wells treated with compound) was “promoted growth of cells”. For the same molecule, the MIC [6] was 31.2 µg/mL and the MIC [7] was 15.6 µg/mL (≈ 22 µM).
